Experiments:
Assay in all cases: pIC50, kinobeads binding competition
Settings in all cases: cell material: Jurkat lysate
ACVR1 = molecular target: T1, ACVR1 (UniProt Q04771)
T1 sequence (whole entry): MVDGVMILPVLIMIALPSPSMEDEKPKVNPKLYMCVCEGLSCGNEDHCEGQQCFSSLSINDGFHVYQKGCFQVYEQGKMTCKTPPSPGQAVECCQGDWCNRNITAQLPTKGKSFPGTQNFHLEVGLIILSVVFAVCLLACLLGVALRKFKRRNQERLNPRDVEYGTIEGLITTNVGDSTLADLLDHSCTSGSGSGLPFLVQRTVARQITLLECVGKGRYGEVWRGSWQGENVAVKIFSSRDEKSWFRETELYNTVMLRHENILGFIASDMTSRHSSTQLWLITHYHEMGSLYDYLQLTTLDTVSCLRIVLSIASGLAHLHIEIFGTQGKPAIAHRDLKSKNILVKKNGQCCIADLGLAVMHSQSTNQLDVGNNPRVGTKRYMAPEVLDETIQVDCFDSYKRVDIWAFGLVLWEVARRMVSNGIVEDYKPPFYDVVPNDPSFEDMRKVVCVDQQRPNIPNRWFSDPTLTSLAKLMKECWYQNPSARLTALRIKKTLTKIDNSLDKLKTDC

MAST4 = MAST4 (UniProt O15021)
PRKG2 = molecular target: T2, PRKG2 (UniProt Q13237)
T2 sequence (whole entry): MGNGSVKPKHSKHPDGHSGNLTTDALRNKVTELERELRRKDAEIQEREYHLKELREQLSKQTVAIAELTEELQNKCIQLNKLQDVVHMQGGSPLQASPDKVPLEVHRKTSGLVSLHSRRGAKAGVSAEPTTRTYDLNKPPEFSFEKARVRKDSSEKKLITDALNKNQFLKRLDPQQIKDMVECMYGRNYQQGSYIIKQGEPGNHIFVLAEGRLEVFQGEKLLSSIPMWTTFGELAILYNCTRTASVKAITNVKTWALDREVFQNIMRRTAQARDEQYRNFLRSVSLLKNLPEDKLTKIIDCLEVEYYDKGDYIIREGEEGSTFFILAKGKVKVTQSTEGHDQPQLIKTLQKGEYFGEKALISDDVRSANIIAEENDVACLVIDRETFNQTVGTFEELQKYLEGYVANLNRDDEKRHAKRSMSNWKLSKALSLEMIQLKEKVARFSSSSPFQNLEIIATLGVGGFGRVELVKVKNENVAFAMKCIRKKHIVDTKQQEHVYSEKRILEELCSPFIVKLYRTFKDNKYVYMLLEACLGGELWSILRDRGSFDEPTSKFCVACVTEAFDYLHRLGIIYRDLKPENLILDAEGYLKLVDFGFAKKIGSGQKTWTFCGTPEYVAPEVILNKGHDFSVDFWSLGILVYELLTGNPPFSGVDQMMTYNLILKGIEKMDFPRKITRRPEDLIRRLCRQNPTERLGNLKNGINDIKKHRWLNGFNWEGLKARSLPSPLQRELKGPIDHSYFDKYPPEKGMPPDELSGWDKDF

UniProt O15530 = molecular target: T3, UniProt O15530
T3 sequence (whole entry): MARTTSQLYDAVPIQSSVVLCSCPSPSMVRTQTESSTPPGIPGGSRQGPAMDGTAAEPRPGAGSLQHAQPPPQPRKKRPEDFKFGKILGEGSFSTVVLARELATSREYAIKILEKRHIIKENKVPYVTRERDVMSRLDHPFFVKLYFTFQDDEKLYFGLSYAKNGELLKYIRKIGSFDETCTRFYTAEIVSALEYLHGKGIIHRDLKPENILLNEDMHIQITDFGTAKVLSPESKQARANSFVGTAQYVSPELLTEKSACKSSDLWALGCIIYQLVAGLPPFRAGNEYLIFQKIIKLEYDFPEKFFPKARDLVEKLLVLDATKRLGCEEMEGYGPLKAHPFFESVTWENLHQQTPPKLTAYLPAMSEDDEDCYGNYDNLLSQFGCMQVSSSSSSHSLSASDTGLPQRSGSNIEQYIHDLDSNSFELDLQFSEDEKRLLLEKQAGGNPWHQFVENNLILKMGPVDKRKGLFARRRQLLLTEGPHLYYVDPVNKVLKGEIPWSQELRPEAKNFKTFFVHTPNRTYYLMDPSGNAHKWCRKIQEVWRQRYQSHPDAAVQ

UniProt Q8TBX8 = molecular target: T4, UniProt Q8TBX8
T4 sequence (whole entry): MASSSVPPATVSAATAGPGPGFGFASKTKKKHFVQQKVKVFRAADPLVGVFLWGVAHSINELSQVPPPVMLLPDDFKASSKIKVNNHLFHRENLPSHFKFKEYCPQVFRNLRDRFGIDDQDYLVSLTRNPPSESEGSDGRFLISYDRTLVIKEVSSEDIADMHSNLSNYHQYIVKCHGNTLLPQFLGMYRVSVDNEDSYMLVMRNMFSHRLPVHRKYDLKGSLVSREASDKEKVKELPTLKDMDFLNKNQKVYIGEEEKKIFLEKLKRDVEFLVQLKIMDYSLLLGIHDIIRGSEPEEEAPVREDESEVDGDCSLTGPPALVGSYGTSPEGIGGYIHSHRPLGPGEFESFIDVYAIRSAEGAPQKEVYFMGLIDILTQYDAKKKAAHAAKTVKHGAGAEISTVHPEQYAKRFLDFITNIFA

ZAP70 = molecular target: T5, ZAP70 (UniProt P43403)
T5 sequence (whole entry): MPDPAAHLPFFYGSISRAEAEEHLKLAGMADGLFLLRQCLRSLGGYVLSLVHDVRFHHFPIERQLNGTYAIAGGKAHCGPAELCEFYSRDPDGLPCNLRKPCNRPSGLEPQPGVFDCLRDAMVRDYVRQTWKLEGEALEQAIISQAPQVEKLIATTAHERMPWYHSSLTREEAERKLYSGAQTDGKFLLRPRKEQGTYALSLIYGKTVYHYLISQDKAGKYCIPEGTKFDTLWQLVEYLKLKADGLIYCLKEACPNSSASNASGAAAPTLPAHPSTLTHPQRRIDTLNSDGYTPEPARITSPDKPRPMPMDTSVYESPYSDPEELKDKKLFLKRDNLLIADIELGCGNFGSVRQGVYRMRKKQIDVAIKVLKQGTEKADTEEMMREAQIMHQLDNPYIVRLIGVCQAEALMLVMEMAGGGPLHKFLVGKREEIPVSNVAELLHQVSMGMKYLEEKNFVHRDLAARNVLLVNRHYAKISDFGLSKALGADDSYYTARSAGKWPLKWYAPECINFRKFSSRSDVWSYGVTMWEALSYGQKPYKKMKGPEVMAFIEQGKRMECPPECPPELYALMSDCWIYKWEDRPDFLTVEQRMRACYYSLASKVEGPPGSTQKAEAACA

Sequence of MAST4 (O15021 whole entry): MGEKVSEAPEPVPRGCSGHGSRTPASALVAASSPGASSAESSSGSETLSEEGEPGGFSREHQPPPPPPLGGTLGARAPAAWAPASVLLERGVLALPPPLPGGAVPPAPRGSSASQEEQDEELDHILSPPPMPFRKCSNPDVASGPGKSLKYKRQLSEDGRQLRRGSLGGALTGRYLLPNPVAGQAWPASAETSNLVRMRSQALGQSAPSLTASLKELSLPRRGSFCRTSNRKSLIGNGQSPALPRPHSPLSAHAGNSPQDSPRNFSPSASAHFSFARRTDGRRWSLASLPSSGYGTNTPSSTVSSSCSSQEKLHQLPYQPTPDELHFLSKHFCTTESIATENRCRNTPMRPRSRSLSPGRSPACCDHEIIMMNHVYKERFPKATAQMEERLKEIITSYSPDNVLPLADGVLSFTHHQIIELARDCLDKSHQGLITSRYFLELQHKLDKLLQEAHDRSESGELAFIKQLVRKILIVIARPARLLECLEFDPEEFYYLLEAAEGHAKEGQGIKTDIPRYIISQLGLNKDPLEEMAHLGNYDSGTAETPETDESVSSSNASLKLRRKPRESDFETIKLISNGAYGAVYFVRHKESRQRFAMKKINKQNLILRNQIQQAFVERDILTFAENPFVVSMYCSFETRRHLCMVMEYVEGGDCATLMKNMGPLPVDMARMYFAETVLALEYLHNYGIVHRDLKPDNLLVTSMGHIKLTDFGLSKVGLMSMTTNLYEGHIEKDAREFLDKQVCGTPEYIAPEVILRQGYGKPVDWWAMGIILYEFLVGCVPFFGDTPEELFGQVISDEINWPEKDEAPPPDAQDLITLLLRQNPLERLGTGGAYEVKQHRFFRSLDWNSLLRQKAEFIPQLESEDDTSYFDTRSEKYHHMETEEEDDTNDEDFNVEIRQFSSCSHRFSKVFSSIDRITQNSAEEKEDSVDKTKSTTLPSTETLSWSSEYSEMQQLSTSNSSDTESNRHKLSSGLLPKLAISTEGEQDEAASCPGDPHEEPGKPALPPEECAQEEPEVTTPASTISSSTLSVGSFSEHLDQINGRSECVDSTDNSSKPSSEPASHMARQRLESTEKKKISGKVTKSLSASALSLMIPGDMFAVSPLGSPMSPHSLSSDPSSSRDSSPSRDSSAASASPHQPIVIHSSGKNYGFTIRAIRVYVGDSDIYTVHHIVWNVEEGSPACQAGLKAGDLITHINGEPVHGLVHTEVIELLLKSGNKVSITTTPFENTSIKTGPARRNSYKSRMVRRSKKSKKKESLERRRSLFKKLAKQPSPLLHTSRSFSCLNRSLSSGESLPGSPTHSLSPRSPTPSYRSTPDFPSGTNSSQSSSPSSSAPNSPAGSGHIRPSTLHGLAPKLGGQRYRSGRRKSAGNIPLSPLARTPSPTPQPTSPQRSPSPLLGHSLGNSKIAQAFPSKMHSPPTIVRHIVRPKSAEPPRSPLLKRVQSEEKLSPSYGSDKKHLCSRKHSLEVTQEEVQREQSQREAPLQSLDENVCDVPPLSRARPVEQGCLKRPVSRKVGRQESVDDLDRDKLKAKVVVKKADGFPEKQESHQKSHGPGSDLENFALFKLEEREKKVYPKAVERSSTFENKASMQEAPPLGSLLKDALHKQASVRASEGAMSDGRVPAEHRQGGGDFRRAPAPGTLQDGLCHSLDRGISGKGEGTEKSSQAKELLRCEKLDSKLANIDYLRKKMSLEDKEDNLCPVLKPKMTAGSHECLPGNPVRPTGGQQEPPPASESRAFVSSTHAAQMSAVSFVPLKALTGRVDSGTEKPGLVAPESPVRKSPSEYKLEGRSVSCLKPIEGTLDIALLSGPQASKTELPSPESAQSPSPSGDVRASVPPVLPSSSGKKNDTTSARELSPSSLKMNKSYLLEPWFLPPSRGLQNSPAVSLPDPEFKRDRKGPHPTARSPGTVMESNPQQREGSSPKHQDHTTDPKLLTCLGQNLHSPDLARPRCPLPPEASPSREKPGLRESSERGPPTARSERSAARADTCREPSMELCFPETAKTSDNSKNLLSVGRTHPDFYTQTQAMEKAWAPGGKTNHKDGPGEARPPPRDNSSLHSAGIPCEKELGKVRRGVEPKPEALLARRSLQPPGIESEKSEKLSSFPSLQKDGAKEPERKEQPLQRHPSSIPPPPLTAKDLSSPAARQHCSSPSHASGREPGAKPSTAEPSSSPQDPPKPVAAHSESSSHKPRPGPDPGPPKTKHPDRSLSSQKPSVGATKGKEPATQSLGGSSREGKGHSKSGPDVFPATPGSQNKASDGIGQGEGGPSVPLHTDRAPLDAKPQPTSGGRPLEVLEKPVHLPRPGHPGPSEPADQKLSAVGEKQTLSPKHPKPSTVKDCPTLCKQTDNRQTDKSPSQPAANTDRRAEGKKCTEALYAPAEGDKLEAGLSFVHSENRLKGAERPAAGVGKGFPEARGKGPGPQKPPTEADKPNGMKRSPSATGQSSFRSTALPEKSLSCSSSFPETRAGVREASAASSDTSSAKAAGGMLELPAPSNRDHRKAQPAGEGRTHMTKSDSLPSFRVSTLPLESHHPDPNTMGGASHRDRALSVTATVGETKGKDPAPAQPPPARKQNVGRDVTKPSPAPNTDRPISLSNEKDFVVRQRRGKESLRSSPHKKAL

- pIC50 (ACVR1): < 4.52
- pIC50 (MAST4): < 4.52
- pIC50 (PRKG2): < 4.52
- pIC50 (UniProt O15530): < 4.52
- pIC50 (UniProt Q8TBX8): < 4.52
- pIC50 (ZAP70): < 4.52
SMILES: CCc1cnn2c(NCc3ccc[n+]([O-])c3)cc(N3CCCC[C@H]3CCO)nc12 [dinaciclib]

— the supplement of paper PMC12076712
